The conditions of this data set: reservoir patch, drug at saturation, cladribine in ethanol/DMSO (50/50), entinostat in ethanol/water (2/1), human cadaver epidermis.

Procedure: A feasibility study of transdermal delivery of cladribine and HDAC inhibitors was conducted using the Franz Cell Method. The scope of the ongoing study is to determine the passive transdermal diffusion rate (passive perfusion) of cladribine and multiple HDAC inhibitors for creation of continuous transdermal delivery for induction therapy.
Cladribine was mixed with about 2 percent of a concentration of a thickener comprising a cellulose component to thicken the cladribine composition.
All testing was performed in an incubator at 32 degrees Celsius.
Round pieces of human cadaveric skin were cut out. The patches were placed on top of the skin and mounted in the Franz Cells between the donor compartment and the receiver compartments of the cell. The two compartments were tightened together with a screw-on pinch clamp.
The results of transdermal flux were graphed as a function of time.

For the compound `Nc1nc(Cl)nc2c1ncn2[C@H]1C[C@H](O)[C@@H](CO)O1` [Cladribine], the “lag time before sustained transdermal delivery” value was determined as 10 h. This compound also displayed an optimum transdermal flux (32 degrees Celsius, 24 hour) of 170 μg/cm^2/day.

The record behind these values is patent US10434090B2, “Pharmaceutical composition containing a hypomethylating agent and a histone deacetylase inhibitor” (NIMBLE EPITECH, LLC, priority 2009, dated 2019).
